Measurements as given in ChEMBL document CHEMBL4837233, “Inhibition of BACE1 and Amyloid-β Aggregation by Meroterpenoids from the Mushroom Albatrellus yasudae” (J Nat Prod, 2021).

What was measured:
Beta-secretase 1 = Beta-secretase 1 (Homo sapiens, UniProt P56817); assay: Inhibition of BACE1 (unknown origin) using Rh-EVNNLDAEFK fluorogenic peptide as substrate incubated for 3 hrs by FRET assay
[1] = target: Amyloid-beta precursor protein (Homo sapiens, UniProt P05067); assay: Inhibition of self-induced aggregation amyloid beta (1 to 40) (unknown origin) incubated for 24 hrs by Thioflavin T based fluorometric assay
Sequence of Amyloid-beta precursor protein (P05067 whole entry): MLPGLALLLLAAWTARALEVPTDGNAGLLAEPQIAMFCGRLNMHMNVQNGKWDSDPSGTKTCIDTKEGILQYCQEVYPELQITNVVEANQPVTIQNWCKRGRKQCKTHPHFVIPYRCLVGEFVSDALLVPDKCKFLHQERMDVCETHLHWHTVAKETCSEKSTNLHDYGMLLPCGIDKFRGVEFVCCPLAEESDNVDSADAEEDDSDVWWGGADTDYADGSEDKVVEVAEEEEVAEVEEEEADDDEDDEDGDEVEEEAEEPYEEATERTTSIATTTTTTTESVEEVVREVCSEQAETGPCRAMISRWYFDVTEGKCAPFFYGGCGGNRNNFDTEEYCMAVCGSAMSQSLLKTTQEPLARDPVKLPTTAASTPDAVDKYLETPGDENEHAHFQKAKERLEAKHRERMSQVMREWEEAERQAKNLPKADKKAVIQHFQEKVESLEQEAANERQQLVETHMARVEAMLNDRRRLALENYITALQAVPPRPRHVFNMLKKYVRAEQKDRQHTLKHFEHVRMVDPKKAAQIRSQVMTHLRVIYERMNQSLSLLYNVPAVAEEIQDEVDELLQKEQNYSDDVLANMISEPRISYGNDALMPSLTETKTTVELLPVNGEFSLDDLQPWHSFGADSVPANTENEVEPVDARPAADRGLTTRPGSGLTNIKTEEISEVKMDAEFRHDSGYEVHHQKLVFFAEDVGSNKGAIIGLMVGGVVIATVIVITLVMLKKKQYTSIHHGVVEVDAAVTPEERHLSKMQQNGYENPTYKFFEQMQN

Sequence of Beta-secretase 1 (P56817 whole entry): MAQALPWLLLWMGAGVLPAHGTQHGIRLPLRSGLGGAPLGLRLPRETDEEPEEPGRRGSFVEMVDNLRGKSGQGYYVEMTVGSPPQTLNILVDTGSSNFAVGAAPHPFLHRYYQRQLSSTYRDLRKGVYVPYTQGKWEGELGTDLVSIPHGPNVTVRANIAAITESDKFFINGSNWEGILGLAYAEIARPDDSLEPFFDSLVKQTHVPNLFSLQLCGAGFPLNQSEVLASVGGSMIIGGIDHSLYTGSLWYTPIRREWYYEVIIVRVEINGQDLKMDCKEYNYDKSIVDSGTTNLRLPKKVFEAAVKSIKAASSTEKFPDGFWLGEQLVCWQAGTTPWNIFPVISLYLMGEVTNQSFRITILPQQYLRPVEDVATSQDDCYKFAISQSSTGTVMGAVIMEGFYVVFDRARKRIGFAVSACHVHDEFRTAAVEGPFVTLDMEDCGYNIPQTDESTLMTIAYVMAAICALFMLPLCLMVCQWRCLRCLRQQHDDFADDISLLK

Row | SMILES | IC50 (Beta-secretase 1) [µM] | IC50 [1] [µM]
1 | COC(=O)c1c(C)cc(O)c(C/C=C(\C)CCCC2=C/C(=C\C(C)(C)O)OC2=O)c1O | 10.9 | 40.7
2 | C/C(=C\Cc1c(O)cc(C)c(C(=O)O)c1O)CC/C=C(\C)CC[C@H](O)C(C)(C)O | 34.4 | 53.3
3 | COC(=O)c1c(C)c(C/C=C(\C)CC/C=C(\C)CCC=C(C)C)c(OC)c(O)c1O | > 100 | 50.3

Continued by falling IC50 (Beta-secretase 1), values first:

Row | IC50 (Beta-secretase 1) [µM] | IC50 [1] [µM] | SMILES
4 | 10.5 | 51.4 | C/C(=C\Cc1c(O)cc(C)c(C(=O)O)c1O)CCCC1=C/C(=C\C(C)(C)O)OC1=O
5 | 6.1 | – | CC(C)=CCC/C(C)=C/CC/C(C)=C/Cc1c(O)cc(C)cc1O [GRIFOLIN]
6 | 1.6 | 6.6 | COc1c(O)c(O)c(C(=O)O)c(C)c1C/C=C(\C)CC/C=C(\C)CCC=C(C)C
7 | 1.4 | – | CC(C)=CCC/C(C)=C/CC/C(C)=C/Cc1c(O)cc(C)c(C(=O)O)c1O [GRIFOLIC ACID]
